Assay results as given in US20260199284A1, “SPECIFIC VASH COMPOUNDS (SVC) INHIBITORS FOR HEART DISEASES” (MT ACT, priority 2023, published 2026).
“Also recorded” adds a separate entry of the source.

Columns and labels:
[1] = tested on: ZSF-1 Obese cardiomyocyte; assay: Immunofluorescence of detyrosinated and tyrosinated tubulin in ZSF1 cardiomyocytes; format: cell-based, rat; conditions: 2 hr 37 C incubation
Procedure: Cells were fixed in 4% PFA (Electron Microscopy Sciences) for 10 minutes, washed 3 times with PBS and permeabilized in 0.1% TritonX-100 for 10 minutes at room temperature. After washing twice with PBS, cells were placed in blocking buffer (1:1 Seablock (Abcam) and 0.1% TritonX-100 (Bio-Rad) in PBS) for at least 1 hour at room temperature, then labeled with primary antibodies (see below) for 24-48 hours at 4° C. Cells were then washed three times in TBS, then labeled with secondary antibodies (see below) in TBS at room temperature for 2-4 hours and washed a final two times with TBS. Stained cells were mounted on #1.5 coverslips in Prolong Diamond Antifade Mountant (Thermo Fisher) for imaging. Alternatively, cells were imaged directly in chambers with TBS. Imaging was carried out on a Zeiss 880 Airyscan confocal microscope operating on an Axiovert Z1 inverted microscope equipped with a Plan-Apochromat 63× oil 1.4 NA objective. Image analysis was performed using ZEN Black software for Airyscan processing, which involves signal integration from the 32 separate sub-resolution detectors in the Airyscan detector and subsequent deconvolution of this integrated signal.

[2] = tested on: primary cardiomyocytes isolated from ZSF1-Lean or ZSF1 Obese rats; assay: Cardiomyocyte stretch longitudinal stiffness; format: cell-based, rat; conditions: 10% strain
Procedure: FIG. 18: Reduced longitudinal stiffness upon VASH inhibition in primary cardiomyocytes isolated from ZSF1-Lean or ZSF1 Obese rats. A) Diastolic Stiffness (elastic modulus at the initial time of peak strain) upon a 10%, 200 ms strain along the long-axis of an isolated cardiomyocyte; B) Stead state stiffness upon strain and hold, and C) stress relaxation (indicator of viscoelasticity) in ZSF1-Lean and Obese cardiomyocytes.
Either freshly isolated or cultured myocytes were diluted to a sparse density (~10×) into a large (22×50 mm) glass bottom petri dish coated with BSA to prevent myocyte adhesion with Normal Tyrodes solution. A small aliquot of Myotak™ was freshly thawed and a 1.5 uL droplet was placed in a dry area of the petri dish and allowed to polymerize (2-3 min). When the droplet had become “tacky” laser etched glass rods (Ion Optix LLC) were lowered into the solution several times to create a thin coating of Myotak which was allowed to dry for 90 seconds before the probes were submersed into the cell-containing bath. […] The Myostretcher apparatus (Ion Optix LLC) was used to stretch myocytes by roughly 10% over either a 200 ms (diastolic) or 5 s (slow) interval while force and sarcomere length were recorded using the Ion Wizard software and MyoCam imaging system (live FFT). […]

[3] = tested on: ZSF1 obese rats; assay: Echocardiography and invasive hemodynamics in HFpEF rats; format: in vivo, rat
Description: FIG. 21: VASHi acutely improves diastolic function in HFpEF rats. A) Echocardiographic assessments of left ventricular diastolic function in ZSF1 Lean and Obese animals+/−SVC_02 treatment. Improved E/A ratio (marker of the function of the left ventricle of the heart) and mitral valve deceleration time indicate improved diastolic function and faster ventricular relaxation upon VASH inhibition in ZSF1 obese rats. B) Hemodynamic measurements of left ventricular diastolic function in ZSF1 Lean and Obese animals+/−SVC_02 treatment. Improved tau (left ventricular diastolic time constant) and dP/dTmin (rate of ventricular relaxation) indicate more rapid ventricular relaxation upon VASH inhibition in ZSF1 obese rats.
Echocardiography measurements were acquired Vevo2100 Ultrasound System (VisualSonics Inc., Toronto, Ontario, Canada) with a MS250 (13-24 MHz) transducer. Animals were sedated with inhaled isoflurane (2-3%). Parasternal long axis, parasternal short axis, apical four chamber, and apical two chamber views were acquired to assess cardiac structure and function. Diastology was assessed using pulse wave and tissue doppler imaging. The protocol used was based on recommendations from the European Society of Cardiology Working Group on Myocardial Function (Zacchigna S et al. 2021).
Animals were induced with isoflurane (5%) before being intubated and mechanically supported. Anesthesia plane was maintained using isoflurane (2-3%). A 2-French pressure-conductance catheter (Transonic Systems Inc., Ithaca, New York, USA) was calibrated using echo derived left ventricular volumes. The right common carotid artery was then dissected, and the catheter was advanced in a retrograde fashion into the left ventricle as previously described. Data were acquired using PowerLab and LabChart Pro (ADInstruments) and analyzed offline using LabChart Pro (ADInstruments).

SMILES	detyrosinated tubulin in ZSF1 cardiomyocytes [1]	tyrosinated microtubule network [1]	viscoelastic longitudinal stiffness [2]	E/A ratio ([3]; echocardiography)	mitral valve deceleration time ([3]; echocardiography)	dP/dTmin (rate of ventricular relaxation) ([3]; hemodynamics)	tau (left ventricular diastolic time constant) ([3]; hemodynamics)
O=C(O)CCC[C@H](NC(=O)[C@H]1O[C@@H]1C(=O)C[C@@H](Cc1ccc(OCc2ccccc2)cc1)C(=O)O)C(=O)NCCc1ccccc1 [SVC_01]	virtual elimination of detyrosinated microtubule; also recorded: significant reduction of tubulin detyrosination	maintained tyrosinated microtubule network	viscoelastic longitudinal stiffness is reduced				
CCOC(=O)[C@H](Cc1ccc(OCC)cc1)NC(=O)[C@H]1O[C@@H]1C(=O)N[C@@H](Cc1ccc(OCC)cc1)C(=O)OCC [SVC_02]				Improved	Improved	Improved	Improved
